# Assay results taken from ChEMBL document CHEMBL5375953, “Discovery of Biaryl Amide Derivatives as Potent, Selective, and Orally Bioavailable RORγt Agonists for Cancer Immunotherapy” (J Med Chem, 2023).
# Columns and labels:
# [1] = Metabolic Stability in mouse liver microsome assessed as half life at […] measured upto 60 mins by HPLC-MS/MS analysis; format: ADME; settings: liver microsomes
# [2] = Metabolic Stability in mouse liver microsome assessed as microsomal intrinsic clearance at […] measured upto 60 mins by HPLC-MS/MS analysis; format: ADME; settings: liver microsomes, read-out: CLH
# [3] = Metabolic Stability in human liver microsome assessed as half life at […] measured upto 60 mins by HPLC-MS/MS analysis; format: ADME; settings: liver microsomes
# [4] = Metabolic Stability in human liver microsome assessed as microsomal intrinsic clearance at […] measured upto 60 mins by HPLC-MS/MS analysis; format: ADME; settings: liver microsomes, read-out: CLH
# [5] = Metabolic Stability in rat liver microsome assessed as half life at […] measured upto 60 mins by HPLC-MS/MS analysis; format: ADME; settings: liver microsomes
# [6] = Metabolic Stability in rat liver microsome assessed as microsomal intrinsic clearance at […] measured upto 60 mins by HPLC-MS/MS analysis; format: ADME; settings: liver microsomes, read-out: CLH
# [7] = Metabolic Stability in dog liver microsome assessed as microsomal intrinsic clearance at […] measured upto 60 mins by HPLC-MS/MS analysis; format: ADME, Canis lupus familiaris; settings: liver microsomes, read-out: CLH
# [8] = Metabolic Stability in cynomolgus monkey liver microsome assessed as microsomal intrinsic clearance at […] measured upto 60 mins by HPLC-MS/MS analysis; format: ADME, Macaca fascicularis; settings: liver microsomes, read-out: CLH
# [9] = Metabolic Stability in mouse liver microsome assessed as intrinsic clearance at […] measured upto 60 mins by HPLC-MS/MS analysis; format: ADME; settings: microsomes, 1 h
# [10] = Metabolic Stability in rat liver microsome assessed as intrinsic clearance at […] measured upto 60 mins by HPLC-MS/MS analysis; format: ADME; settings: microsomes, 1 h
# [11] = Metabolic Stability in human liver microsome assessed as intrinsic clearance at […] measured upto 60 mins by HPLC-MS/MS analysis; format: ADME; settings: microsomes, 1 h
# [12] = molecular target: T1, Nuclear receptor ROR-beta (Homo sapiens, UniProt Q92753); test: Agonist activity at human Gal4-fused RORbeta expressed in HEK293T cells assessed as luciferase activity incubated for 16 to 20 hrs by Luciferase reporter gene assay; format: cell-based
# T1 sequence (Q92753 whole entry): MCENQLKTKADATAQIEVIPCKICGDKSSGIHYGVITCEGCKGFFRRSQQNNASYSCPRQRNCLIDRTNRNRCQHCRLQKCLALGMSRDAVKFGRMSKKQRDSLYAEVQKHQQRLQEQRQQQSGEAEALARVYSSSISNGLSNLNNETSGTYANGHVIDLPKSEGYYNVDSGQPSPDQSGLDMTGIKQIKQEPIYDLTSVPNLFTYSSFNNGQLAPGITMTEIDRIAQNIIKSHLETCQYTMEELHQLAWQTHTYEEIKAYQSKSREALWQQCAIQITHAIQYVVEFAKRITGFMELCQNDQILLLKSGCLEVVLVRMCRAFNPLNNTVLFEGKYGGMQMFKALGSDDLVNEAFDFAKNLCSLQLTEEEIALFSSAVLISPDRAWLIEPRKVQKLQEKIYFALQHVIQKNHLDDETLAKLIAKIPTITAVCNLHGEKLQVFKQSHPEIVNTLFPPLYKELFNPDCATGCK
# [13] = Volume of distribution at steady state in CD-1 mouse at 1 mg/kg,iv administration measured after 24 hrs by LC-MS/MS analysis; format: ADME, organism-based; settings: in vivo
# [14] = Half life in CD-1 mouse at 1 mg/kg,iv administration measured after 24 hrs by LC-MS/MS analysis; format: ADME, organism-based; settings: in vivo
# [15] = Half life in CD-1 mouse at 5 mg/kg,po administration measured after 24 hrs by LC-MS/MS analysis; format: ADME, organism-based; settings: in vivo
# [16] = Oral bioavailability in CD-1 mouse at 5 mg/kg administration measured after 24 hrs by LC-MS/MS analysis; format: ADME, organism-based; settings: in vivo
# [17] = AUC(infinity) in rat at 1 mg/kg,iv administration measured after 24 hrs by LC-MS/MS analysis; format: ADME, organism-based; design: dose 1 mg/kg, time 24 hrs, route iv; settings: in vivo
# [18] = AUC(infinity) in rat at 5 mg/kg,po administration measured after 24 hrs by LC-MS/MS analysis; format: ADME, organism-based; design: time 24 hrs, dose 5 mg/kg, route po; settings: in vivo
# [19] = Half life in rat at 5 mg/kg,po administration measured after 24 hrs by LC-MS/MS analysis; format: ADME, organism-based; settings: in vivo
# [20] = Oral bioavailability in rat at 5 mg/kg administration measured after 24 hrs by LC-MS/MS analysis; format: ADME, organism-based; settings: in vivo
# [21] = AUC(infinity) in dog at 1 mg/kg,iv administration measured after 24 hrs by LC-MS/MS analysis; format: ADME, organism-based, Canis lupus familiaris; design: time 24 hrs, dose 1 mg/kg, route iv; settings: in vivo
# [22] = Half life in dog at 1 mg/kg,iv administration measured after 24 hrs by LC-MS/MS analysis; format: ADME, organism-based, Canis lupus familiaris; settings: in vivo
# [23] = Cmax in dog at 2 mg/kg,po administration measured after 24 hrs by LC-MS/MS analysis; format: ADME, organism-based, Canis lupus familiaris; design: dose 2 mg/kg, time 24 hrs, route po; settings: in vivo
# [24] = AUC(infinity) in dog at 2 mg/kg,po administration measured after 24 hrs by LC-MS/MS analysis; format: ADME, organism-based, Canis lupus familiaris; design: dose 2 mg/kg, time 24 hrs, route po; settings: in vivo
# [25] = Oral bioavailability in dog at 2 mg/kg administration measured after 24 hrs by LC-MS/MS analysis; format: ADME, organism-based, Canis lupus familiaris; settings: in vivo
# [26] = Genotoxicity in Salmonella typhimurium TA98 by mini-Ames mutagenicity test; format: toxicity; settings: salmonella enterica subsp. enterica serovar typhimurium
# [27] = Genotoxicity in Salmonella typhimurium TA100 by mini-Ames mutagenicity test; format: toxicity; settings: salmonella enterica subsp. enterica serovar typhimurium
# [28] = Toxicity against C57BL/6 mouse xenografted with mouse B16-F10 cells assessed as body weight loss at 25 to 100 mg/kg,ip administrated on day 7 for 8 days; format: organism-based; settings: in vivo, 192 h, dose 25-100 mg/kg, time 8 day
# [29] = Toxicity against C57BL/6 mouse xenografted with mouse B16-F10 cells assessed as animal death at 25 to 100 mg/kg,ip administrated on day 7 for 8 days; format: organism-based; settings: in vivo, 192 h, dose 25-100 mg/kg, time 8 day
# [30] = Antitumor activity against mouse Lung adenocarcinoma cell line xenografted in C57BL/6 mouse assessed as tumor growth inhibition at 25 mg/kg,ip administrated on day 7 for 12 days relative to control; format: functional; settings: 288 h, time 12 day, read-out: TGI
# [31] = Antitumor activity against mouse Lung adenocarcinoma cell line xenografted in C57BL/6 mouse assessed as tumor growth inhibition at 100 mg/kg,po administrated on day 7 for 12 days relative to control; format: functional; settings: 288 h, time 12 day, read-out: TGI
# [32] = Toxicity against C57BL/6 mouse xenografted with mouse Lung adenocarcinoma cell line assessed as change in body weight at 25 mg/kg,ip administrated on day 7 for 12 days; format: organism-based; settings: in vivo, 288 h, time 12 day
# [33] = Toxicity against C57BL/6 mouse xenografted with mouse Lung adenocarcinoma cell line assessed as change in body weight at 50 mg/kg,ip administrated on day 7 for 12 days; format: organism-based; settings: in vivo, 288 h, time 12 day
# [34] = Toxicity against C57BL/6 mouse xenografted with mouse Lung adenocarcinoma cell line assessed as change in body weight at 100 mg/kg,po administrated on day 7 for 12 days; format: organism-based; settings: in vivo, 288 h, time 12 day
compound,measurement,setting,value
CCS(=O)(=O)c1ccc(CC(=O)Nc2cc(Cl)c(-c3ccc(OC(C)C)c(C#N)c3)c(Cl)c2)cc1,half-life,[1],> 2.42 h
same,microsomal CLint,[2],< 9.6 µL/min/mg
same,half-life,[3],> 2.42 h
same,microsomal CLint,[4],< 9.6 µL/min/mg
same,half-life,[5],> 2.42 h
same,microsomal CLint,[6],< 9.6 µL/min/mg
same,microsomal CLint,[7],< 9.6 µL/min/mg
same,microsomal CLint,[8],44.6 µL/min/mg
same,CLH,[9],< 38 µL/min/mg
same,CLH,[10],< 17.3 µL/min/mg
same,CLH,[11],< 8.6 µL/min/mg
same,EC50,[12],> 10 µM
same,Vdss,[13],2 L/kg
same,t1/2,[14],6.3 h
same,half-life,[15],6 h
same,bioavailability,[16],90.3%
same,AUC(0-inf),[17],5410 ng·h/mL
same,AUC(0-inf),[18],10600 ng·h/mL
same,half-life,[19],11.4 h
same,bioavailability,[20],39.4%
same,AUC(0-inf),[21],27000 ng·h/mL
same,half-life,[22],46.5 h
same,Cmax,[23],518 ng/mL
same,AUC(0-inf),[24],33000 ng·h/mL
same,bioavailability,[25],52.2%
same,Activity,[26],Non-Toxic
same,Activity,[27],Non-Toxic
same,Activity,[28],Non-Toxic
same,Activity,[29],Non-Toxic
same,inhibition in vivo at 25 mg/kg,[30],46.2%
same,inhibition in vivo at 100 mg/kg,[31],49.8%
same,Activity,[32],Non-Toxic
same,Activity,[33],Non-Toxic
same,Activity,[34],Non-Toxic
